Source: ChEMBL document CHEMBL3044934, “Design, synthesis, and antiviral evaluation of phenanthrene-based tylophorine derivatives as potential antiviral agents” (2010)

Assays:
Format in all cases: functional
Tobacco mosaic virus [1] = experiment: Antiviral activity against Tobacco mosaic virus (TMV) pre-treated with 500 ug/mL compound for 30 min followed by inoculation on left side of Nicotiana tabacum leaves assessed as virus inactivation effect measured 3 to 4 days post viral infection
Tobacco mosaic virus [2] = experiment: Antiviral activity against Tobacco mosaic virus (TMV) inoculated on 100 ug/mL compound smeared Nicotiana tabacum leaves assessed as protective effect against viral infection measured 3 to 4 days post viral infection
Tobacco mosaic virus [3] = experiment: Antiviral activity against Tobacco mosaic virus (TMV) pre-treated with 100 ug/mL compound for 30 min followed by inoculation on left side of Nicotiana tabacum leaves assessed as virus inactivation effect measured 3 to 4 days post viral infection
Tobacco mosaic virus [4] = experiment: Antiviral activity against Tobacco mosaic virus (TMV) inoculated on whole Nicotiana tabacum leaves followed by smearing with 500 ug/mL compound solution on left side of leaves assessed as viral infection curative effect measured 3 to 4 days post viral infection
Tobacco mosaic virus [5] = experiment: Antiviral activity against Tobacco mosaic virus (TMV) inoculated on whole Nicotiana tabacum leaves followed by smearing with 100 ug/mL compound solution on left side of leaves assessed as viral infection curative effect measured 3 to 4 days post viral infection
Tobacco mosaic virus [6] = experiment: Antiviral activity against Tobacco mosaic virus (TMV) inoculated on 500 ug/mL compound smeared Nicotiana tabacum leaves assessed as protective effect against viral infection measured 3 to 4 days post viral infection

COc1cc2cc(CN3CCC[C@H]3CO)c3cc(OC)c(OC)cc3c2cc1OC
Activity (Tobacco mosaic virus [1]): 74.2% | Activity (Tobacco mosaic virus [2]): 10.4% | Activity (Tobacco mosaic virus [3]): 36.9% | Activity (Tobacco mosaic virus [4]): 34.6% | Activity (Tobacco mosaic virus [5]): 13.4% | Activity (Tobacco mosaic virus [6]): 19.2%

COC(=O)[C@@H]1CCCN1C(=O)c1cc2cc(OC)c(OC)cc2c2cc(OC)c(OC)cc12
Activity (Tobacco mosaic virus [1]): 8.4% | Activity (Tobacco mosaic virus [2]): 19.2% | Activity (Tobacco mosaic virus [3]): 8% | Activity (Tobacco mosaic virus [4]): 64.6% | Activity (Tobacco mosaic virus [5]): 10.6% | Activity (Tobacco mosaic virus [6]): 56.7%

COc1cc2cc(CN3CCCCC3C(=O)O)c3cc(OC)c(OC)cc3c2cc1OC (stereo not drawn)
Activity (Tobacco mosaic virus [1]): 68.9% | Activity (Tobacco mosaic virus [2]): 10% | Activity (Tobacco mosaic virus [3]): 38.7% | Activity (Tobacco mosaic virus [4]): 45.1% | Activity (Tobacco mosaic virus [5]): 28.9% | Activity (Tobacco mosaic virus [6]): 12.9%

COC(=O)C1CCCCN1Cc1cc2cc(OC)c(OC)cc2c2cc(OC)c(OC)cc12 (stereo not drawn)
Activity (Tobacco mosaic virus [1]): 59.1% | Activity (Tobacco mosaic virus [2]): 27.1% | Activity (Tobacco mosaic virus [3]): 50.2% | Activity (Tobacco mosaic virus [4]): 11.8% | Activity (Tobacco mosaic virus [5]): 1.2% | Activity (Tobacco mosaic virus [6]): 64.6%

COC(=O)C1CCCCN1C(=O)c1cc2cc(OC)c(OC)cc2c2cc(OC)c(OC)cc12 (stereo not drawn)
Activity (Tobacco mosaic virus [1]): 17.3% | Activity (Tobacco mosaic virus [2]): 12.5% | Activity (Tobacco mosaic virus [3]): 4.4% | Activity (Tobacco mosaic virus [4]): 17.9% | Activity (Tobacco mosaic virus [5]): 4.9% | Activity (Tobacco mosaic virus [6]): 56.3%

COc1cc2cc(CN3CCC[C@H]3C(=O)O)c3cc(OC)c(OC)cc3c2cc1OC
Activity (Tobacco mosaic virus [1]): 39.6% | Activity (Tobacco mosaic virus [2]): 23.3% | Activity (Tobacco mosaic virus [3]): 21.3% | Activity (Tobacco mosaic virus [4]): 54.1% | Activity (Tobacco mosaic virus [5]): 14.2% | Activity (Tobacco mosaic virus [6]): 35.4%

COC(=O)[C@@H]1CCCN1Cc1cc2cc(OC)c(OC)cc2c2cc(OC)c(OC)cc12
Activity (Tobacco mosaic virus [1]): 80% | Activity (Tobacco mosaic virus [2]): 38.3% | Activity (Tobacco mosaic virus [3]): 54.7% | Activity (Tobacco mosaic virus [4]): 33.7% | Activity (Tobacco mosaic virus [5]): 2.9% | Activity (Tobacco mosaic virus [6]): 47.1%

COc1cc2cc(CN3CCCCC3CO)c3cc(OC)c(OC)cc3c2cc1OC (stereo not drawn)
Activity (Tobacco mosaic virus [1]): 8.4% | Activity (Tobacco mosaic virus [2]): 4.6% | Activity (Tobacco mosaic virus [3]): 5.2% | Activity (Tobacco mosaic virus [4]): 46.8% | Activity (Tobacco mosaic virus [5]): 36.2% | Activity (Tobacco mosaic virus [6]): 21.3%

COc1cc2cc(CN3CCC(O)CC3)c3cc(OC)c(OC)cc3c2cc1OC
Activity (Tobacco mosaic virus [1]): 71.1% | Activity (Tobacco mosaic virus [2]): 11.3% | Activity (Tobacco mosaic virus [3]): 9.3% | Activity (Tobacco mosaic virus [4]): 37.4% | Activity (Tobacco mosaic virus [5]): 33.7% | Activity (Tobacco mosaic virus [6]): 70.8%

COC(=O)CCCCCNC(=O)c1cc2cc(OC)c(OC)cc2c2cc(OC)c(OC)cc12
Activity (Tobacco mosaic virus [1]): 6.7% | Activity (Tobacco mosaic virus [2]): 14.2% | Activity (Tobacco mosaic virus [3]): 5.8% | Activity (Tobacco mosaic virus [4]): 65.9% | Activity (Tobacco mosaic virus [5]): 48% | Activity (Tobacco mosaic virus [6]): 54.6%

COc1cc2cc(C(=O)NCCCCCCO)c3cc(OC)c(OC)cc3c2cc1OC
Activity (Tobacco mosaic virus [1]): 60.9% | Activity (Tobacco mosaic virus [2]): 22.5% | Activity (Tobacco mosaic virus [3]): 57.8% | Activity (Tobacco mosaic virus [4]): 65% | Activity (Tobacco mosaic virus [5]): 49.6% | Activity (Tobacco mosaic virus [6]): 41.7%

CNCC(=O)N[C@@H](CO)C(=O)N[C@H]1[C@H](O)[C@@H](O)[C@H](n2ccc(N)nc2=O)O[C@@H]1C(N)=O [NINGNANMYCIN]
Activity (Tobacco mosaic virus [1]): 68.4% | Activity (Tobacco mosaic virus [2]): 47.5% | Activity (Tobacco mosaic virus [3]): 48% | Activity (Tobacco mosaic virus [4]): 47.9% | Activity (Tobacco mosaic virus [5]): 39% | Activity (Tobacco mosaic virus [6]): 48.7%

COc1cc2c3c(c4cc(OC)c(OC)cc4c2cc1OC)CN1CCC[C@@H]1C3 [TYLOPHORINE]
Activity (Tobacco mosaic virus [1]): 62.6% | Activity (Tobacco mosaic virus [2]): 37.9% | Activity (Tobacco mosaic virus [3]): 56.4% | Activity (Tobacco mosaic virus [4]): 65.9% | Activity (Tobacco mosaic virus [5]): 57.7% | Activity (Tobacco mosaic virus [6]): 53.3%
